Assay results reported in publication PMC10187093, “Synthesis, in silico modelling, and in vitro biological evaluation of substituted pyrazole derivatives as potential anti-skin cancer, anti-tyrosinase, and antioxidant agents” (Journal of Enzyme Inhibition and Medicinal Chemistry, 2023).

Experiments:
SK-MEL-28 [1] = test: MTT antiproliferative/cytotoxicity assay, SK-MEL-28; format: cell-based, human; settings: Homo sapiens, SK-MEL-28, 48 h, melanoma, MTT, 48 h; read-out: IC50 SKMEL-28
Method: Human-derived GFP-expressing melanoma A375 and epidermoid carcinoma A431 cell lines were purchased from Angio-Proteomie (Boston, MA). Human melanoma carcinoma SK-MEL-28 and human immortalised keratinocytes (HaCaT) cell lines were acquired from American Type Culture Collection (ATCC; Manassas, VA). Human cutaneous SCC cell line SCC-12[192] was generously provided by Dr. James G. Rheinwald to Dr. Tatiana Efimova. Except SK-MEL-28, which was cultured in an RPMI-1640 medium supplemented with 5% FBS, all other human immortalised cell lines were grown and maintained in DMEM containing varying percentages of FBS; 5% FBS for A431, SCC-12, and HaCaT lines, and 10% FBS for A375. All culture media were routinely supplemented with 1% PEST 100X (100 U/mL penicillin, 100 μg/mL streptomycin), and cells were cultured in incubators maintained at 37 °C under an atmosphere of 95% humidity, 20% O2, and 5% CO2. The growth media of incubated cells were changed every 2–3 days until they attained 70–80% confluence, after which they were sub-cultured for experiments and re-passaging. DMSO was used as the vehicle to prepare a 10 mM stock solution of the test compounds.
Stock solutions (10 mM) were prepared by dissolving each compound to be screened in DMSO. From these stock solutions, escalating concentrations were prepared using the corresponding cell growth media as a diluent, and the cells (65–75% confluent) were treated with (0–40 µM) or without the drug in sext- to octuplicate and incubated for 48 h. All treatment protocols and controls were prepared as previously described.
The potency and cytotoxicity of the test compounds against two cutaneous melanoma (A375 and SK-MEL-28) and two non-melanoma (A431 and SCC-12) SC cell lines in addition to a control immortalised normal human epidermal keratinocytes (HaCaT) cell line were assessed by MTT assay as previously described.

A431 = test: Immunoblotting of apoptosis markers, A431; format: cell-based, human; settings: western blot, 48 h, vs untreated
Method: Immunoblotting was performed according to standard procedures of the Bio-Rad electrophoresis system (Bio-Rad, Hercules, CA) as described earlier. Briefly, protein extracts were obtained by lysing cells in RIPA buffer containing protease inhibitors, and were resolved by 4–12% polyacrylamide ready mini-PROTEAN TGX gel electrophoresis with sodium dodecyl sulphate (SDS) running buffer. Gels were electrotransferred to 0.45 μm nitrocellulose membranes (Bio-Rad, Hercules, CA) in Tris-glycine (TG) buffer using a Trans-Blot Turbo Transfer Pack according to manufacturer’s instructions. Membranes were incubated for 1 h in 5–7% non-fat powdered milk dissolved in TBST (Tris-buffered saline containing 0.05% Tween 20) or 5% BSA for phosphorylated proteins, to saturate nonspecific binding sites, followed by an overnight incubation (4 °C) with primary antibodies. Membranes were washed 5× with TBST and treated with suitable HRP-conjugated secondary antibodies (Amersham Life Science Inc., Arlington Height, IL) for another 2 h at room temperature, followed by additional wash steps and chemiluminescence-based detection with the Amersham ECL Prime detection reagent kit and the Bio-Rad Quantity One ChemiDoc™ detection and imaging analysis software systems as described earlier[108]^,[109].

[2] = DPPH free radical scavenging assay
Method: An initial screen was done of all 25 derivatives at a concentration of 1 mM. […] Methanol was used as the diluent, and 100 µL of DPPH (200 µM; Sigma-Aldrich, St. Louis, MO) was added to each well. […] The scavenging capacity (SC) was calculated as SC% = ((ΔAcontrol – ΔAsample)/ΔAcontrol) × 100%, where ΔAcontrol was the absorbance of the reagent blank, and ΔAsample was the absorbance of the test samples. The control contained all reagents except the compounds, and all tests were performed in triplicate. Quercetin served as a positive control. The DPPH methanolic solution (1 mL) mixed with DMSO (5 µL) served as a negative control.

SK-MEL-28 [3] = test: Colony formation assay, SK-MEL-28; format: cell-based, human; settings: 0, ½IC50, IC50, 1½IC50; 14 days; vs untreated control
Method: Cells were then trypsinised, and 1000 viable cells from each treated group were seeded on […] in 10 mL of the medium, and incubated for an additional 14 days before fixation and crystal violet staining, imaging, and colonies assessment as previously described[109]^,[116]. The plates were scanned, and the area of clones was quantified with the free software Image J (Bethesda, MD) (https://imagej.nih.gov/ij/).

mushroom tyrosinase = target: T1, mushroom tyrosinase (Agaricus bisporus, UniProt C7FF04); test: In vitro mushroom tyrosinase inhibition assay; format: biochemical
T1 construct: purchased Sigma-Aldrich Chemical Company (St. Louis, MO) and MP Biomedicals (Irvine, CA)
Method: The anti-tyrosinase potential of all the synthesised derivatives was determined by an enzymatic tyrosinase inhibition assay based on their ability to inhibit the substrate, L-tyrosine, from binding to the tyrosinase enzyme. […] Test samples were dissolved in DMSO at a concentration of 10 mM and then diluted to different concentrations with phosphate buffer (0.1 M, pH 6.8). Each well contained 40 µL of the sample with 80 µL of phosphate buffer solution (0.1 M, pH 6.8), 40 µL of tyrosinase enzyme (100 units/mL), and 40 µL L-tyrosine (2.5 mM). The mixture was incubated for 30 min at room temperature, and absorbance was measured at 490 nm. Each sample was accompanied by a sample blank containing all components except tyrosinase. […] The percentage of tyrosinase inhibition was calculated as follows: ((ΔAcontrol – ΔAsample)/ΔAcontrol) × 100. IC50 values denoted the sample concentration required to inhibit 50% tyrosinase activity (Table S1).

T1 sequence (C7FF04 1-392 limits assumed): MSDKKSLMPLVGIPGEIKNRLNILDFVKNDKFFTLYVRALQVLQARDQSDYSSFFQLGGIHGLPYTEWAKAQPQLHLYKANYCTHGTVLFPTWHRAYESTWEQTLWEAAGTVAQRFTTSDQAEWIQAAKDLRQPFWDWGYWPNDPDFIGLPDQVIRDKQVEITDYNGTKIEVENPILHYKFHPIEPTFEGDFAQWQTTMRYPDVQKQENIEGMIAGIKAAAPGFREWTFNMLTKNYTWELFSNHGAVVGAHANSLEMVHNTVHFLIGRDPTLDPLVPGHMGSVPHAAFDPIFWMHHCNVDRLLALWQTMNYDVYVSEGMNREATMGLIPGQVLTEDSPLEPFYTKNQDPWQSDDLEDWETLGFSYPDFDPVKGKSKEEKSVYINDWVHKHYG

O=C1CC(c2ccccc2)=NN1c1ccc(Br)cc1 [P25]
IC50 (SK-MEL-28 [1]): 7.6 ± 0.6 µM
activated caspase-3, caspase-9 and cleaved PARP levels, A431 (A431; concentration-dependent): substantially increased levels
anti-apoptotic Bcl-2 protein levels, A431 (A431): corresponding decreases
pro-apoptotic Bax expression, A431 (A431): dose-dependent amplified expression
Percent Scavenging (DPPH) ([2]; 1 mM): 77.30%
IC50 ([2]; N.A. = No Activity, > 1000 = not biologically relevant, read-out: IC50 Value, DPPH antioxidant activity (Table S4)): 190 µM
colony formation, SK-MEL-28 (SK-MEL-28 [3]): significant concentration-dependent reductions in the relative percentage of colonies formed
inhibition at 500 µM (mushroom tyrosinase; 500 µM, single-concentration screen, read-out: % Inhibition of tyrosinase): 21.9%
IC50 (mushroom tyrosinase; > 500 = not biologically relevant, read-out: IC50 Value, mushroom tyrosinase inhibition (Table S1)): > 500 µM
